Earlier results in patent publication US11730619B2, “Systems and methods for determining failure of intragastric devices” (RESHAPE LIFESCIENCES INC., priority 2015, dated 2023).
Structures can show the parent of a compound that is named as a salt. Where two headings read alike, the source gives them in different places.

Key:
[1] = for Solubility: solvent not given
[2] = Meng et al. 2013
[3] = cell wraps: Generally well-tolerated in patients; Merck Index
[4] = pH 3

Compound: CN(C)CCC=C1c2ccccc2CCc2ccccc21 [Amitriptyline Hydrochloride]
- Solubility in water ([1]; water, Merck Index): Salt is freely soluble in
- LD50 (rats) (rat; rats, second of two values, Merck Index): 380 mg/kg

Compound: Cc1cc2nc3c(=O)[nH]c(=O)nc-3n(C[C@H](O)[C@H](O)[C@H](O)CO)c2cc1C [B vitamins (e.g. Riboflavin), Riboflavin]
- Solubility in water ([1]; Merck Index): Solubility: 1 g in 3 L g in 3 L water

Compound: O=C1/C(=C2\Nc3ccc(S(=O)(=O)[O-])cc3C2=O)Nc2ccc(S(=O)(=O)[O-])cc21.[Na+].[Na+] [Indigo carmine]
- LD50 (rat, oral) (rat; rat, oral, Baker MSDS sheet): 2000 mg/kg (Baker MSDS sheet)

Compound: CN(C)c1ccc2c(c1)Sc1cc(N(C)C)ccc1N2 [Leukomethylene blue]
- Excretion in urine ([2]; stabilized in the urine): excreted mostly unaltered

Compound: Cc1cc2nc3[nH]c(=O)[nH]c(=O)c3nc2cc1C [Lumichrome]
- Solubility in hot water ([1]; hot water, Merck Index): Sparingly soluble in hot water
- Solubility [1]: poor solubility

Compound: Cc1cc2nc3c(=O)[nH]c(=O)nc-3n(C)c2cc1C [Lumiflavine]
- Solubility [1]: poor solubility
- Solubility in water ([1]; water, Merck Index): Very sparingly soluble in water

Compound: COc1ccccc1OCC(O)COC(N)=O (centres unmarked) [Methocarbamol]
- Water solubility ([1]; @ 20° C., Merck Index): Water soluble 2.5 g/100 g/100 mL
- Tolerability in patients [3]: Generally well-

Compound: O=C(O)c1cc(O)c2c(c1)[C@H]([C@H]1c3cc(C(=O)O)cc(O)c3C(=O)c3c(O[C@@H]4O[C@H](CO)[C@@H](O)[C@H](O)[C@H]4O)cccc31)c1cccc(O[C@@H]3O[C@H](CO)[C@@H](O)[C@H](O)[C@H]3O)c1C2=O [Sennoside A]
- Solubility in water ([1]; water, Merck Index): insoluble in water.

Compound: O=C(O)c1cc(O)c2c(c1)[C@@H]([C@H]1c3cc(C(=O)O)cc(O)c3C(=O)c3c(O[C@@H]4O[C@H](CO)[C@@H](O)[C@H](O)[C@H]4O)cccc31)c1cccc(O[C@@H]3O[C@H](CO)[C@@H](O)[C@H](O)[C@H]3O)c1C2=O [Sennoside B]
- Solubility in water relative to Sennoside A ([1]; cell wraps: more soluble in water than Sennoside A, Merck): Sennoside B is more

Compound: Nc1nc(N)c2nc(-c3ccccc3)c(N)nc2n1 [Triamterene]
- Solubility: parts water in which 1 part is soluble ([1]; 1 part soluble in 1000 parts water, Merck Index): 1 part soluble in 1000 parts water
- Tolerability in patients [3]: Generally well-

Compound: CN(C)c1ccc2nc3ccc(=[N+](C)C)cc-3sc2c1 [methylene blue]
- Conversion on passage through the gastrointestinal tract [2]: reduced to leukomethylene blue

Compound: Betalain [Betalain (including betanin)]
- pH range of stability [4]: Stable between pH 3
